Source: US4278596A, “Analgesic pentapeptides” (American Home Products Corporation, priority 1978, dated 1981)

Tests used:
rats = test: rat-tail flick method of D'Amour and Smith; format: in vivo; conditions: 5.0 mg/kg. i.v.
Procedure: In this procedure, a representative polypeptide of this invention, N-Me-Tyr-D-Ser-Gly-N-Me-Phe-D-Ser-NH2,acetate, produced significant analgesia in rats upon administration at a dose as low as 0.1 mg/kg. intravenously, and 0.5 mg/kg. subcutaneously.
When N-Me-Tyr-D-Ser-Gly-N-Me-Phe-D-Ser-NH2, acetate was tested in the rat-tail flick procedure of D'Amour and Smith (supra), the following results were obtained: […]

mouse vas deferns = conditions: mouse vas deferens, like morphine; cited from earlier work
guinea pig ileum = conditions: like morphine; cited from earlier work
opiate receptor = conditions: brain homogenates; cited from earlier work

Which dead (rats) does the source give for CN[C@@H](Cc1ccc(O)cc1)C(=O)N[C@H](CO)C(=O)NCC(=O)N(C)[C@@H](Cc1ccccc1)C(=O)N[C@H](CO)C(N)=O [N-Methyl-Tyrosyl-D-Serylglycyl-N-MethylPhenylalanyl-D-Serinamide. Acetate] here?
The dead was 3/6.

What does the source list for “H-Tyr-Gly-Gly-Phe-Leu-OH [leucine-enkephalin]”?
effect on electrically evoked contractions (mouse vas deferns): block electrically evoked contractions; effect on electrically evoked contractions (guinea pig ileum): block electrically evoked contractions; effect on stereospecific receptor binding of 3H-naloxone (opiate receptor): inhibit

Which results are given for “H-Tyr-Gly-Gly-Phe-Met-OH [methionine-enkephalin]”?
effect on electrically evoked contractions (mouse vas deferns): block electrically evoked contractions; effect on electrically evoked contractions (guinea pig ileum): block electrically evoked contractions; effect on stereospecific receptor binding of 3H-naloxone (opiate receptor): inhibit
